The NIST ThermoML archive (doi:10.1016/j.fluid.2015.06.034)
Numbers after ± are expanded uncertainties.

Assay: wn = mass fraction of the nth substance listed
Conditions: Liquid, Vibrating tube method, w1 = 0.45

## CN(CCO)CCO [N-methyldiethanolamine] + O
303.15 K
  mass density: 1037.2 ± 5 kg/m3
323.15 K
  mass density: 1024.8 ± 5 kg/m3
343.15 K
  mass density: 1011.5 ± 5 kg/m3
363.15 K
  mass density: 996.4 ± 5 kg/m3
